Measured values from a melting point compilation (Tetko et al.; mined from patent text by program, amines drawn as free bases though some values may be those of a salt).

`O=C1c2ncccc2C(=O)c2c(-c3ccccc3NC(=O)C(F)(F)F)ccnc21` gave a melting point of 205 °C. Compound `CN=C(ON1C(=O)CCC1=O)c1ccccc1` has a melting point of 119 to 120 °C. With `Nc1ncc(-c2ccc3nnn(Cc4ccc5ncccc5c4)c3n2)cn1` the melting point was 244 to 246 °C. Compound `COc1cc(C(=O)Cl)ccc1OCCCCl` has a melting point of 60 to 63 °C. In the case of `N#Cc1ncn2c1[C@@H]1CCCN1C(=O)c1sccc1-2`, the melting point is reported as 249 to 251 °C. In the case of `Cc1cccc2c1C(=O)N1CC[C@H]1c1c(C(=O)OC3CCCCC3)ncn1-2`, the melting point is reported as 199 to 200 °C. Work on `CCOC(=O)Cn1ncc(-c2ccccc2)c1-c1ccccc1` yielded a melting point of 79 to 81 °C. With `CC(=O)Nc1nc(-c2cc(Cl)nc(Cl)c2)cs1` the melting point was 301 °C. Work on `CC(C)(C)C(CO)NC(=O)C(CC(=O)O)n1ccc(-c2ccc(-c3ccc(C(N)=O)cc3)cc2)c1` (configuration not stated) yielded a melting point of 192 to 194 °C. Compound `Cc1cc2c(c3ccc(=O)[nH]c13)OC(CNC(=O)[C@@H](C)NC(=O)OCc1ccccc1)C2` (some centres not stated) has a melting point of 221 to 222 °C. `COc1ccc(-c2cncc(OC3SCC(O)C(O)C3O)c2)c(C)c1` (configuration not stated) showed a melting point of 231 °C. For `CC(C)N1CC(COc2cccc3c(=O)[nH]ccc23)OC1=O` (configuration not stated), the melting point was 215 to 216 °C. Work on `COc1cc(C(=O)O)c(OC)c2ccccc12` yielded a melting point of 142 to 144 °C. For `COC=C(C(=O)OC)c1ccccc1C#CC1=CCN(c2ccc(Cl)cc2)O1`, the melting point was 107 to 110 °C. For `COC(=O)CCc1c(O)ncc2cc(OC)c(OC)cc12`, the melting point was 178 to 180 °C. Work on `[N-]=[N+]=NCc1cc(Cl)c(C(=O)c2ccc(Cl)cc2)c(Cl)c1` yielded a melting point of 50 to 55 °C. `O=c1[nH]c2ccc(S(=O)CCN3CCC(Cc4ccccc4)CC3)cc2o1` (configuration not stated) showed a melting point of 176 to 178 °C. In the case of `O=Cc1ccc(OCCCN2C(=O)c3ccccc3C2=O)cc1`, the melting point is reported as 120 to 121 °C. With `O=C1NCCc2c1c1cccc3c1n2CCC3` the melting point was 254 to 256 °C. `Cc1cc(-c2[nH]c3ccc(OCc4ccccc4)cc3c2C)cc(C)c1O` showed a melting point of 162 °C. Work on `COc1ccc(Nc2nc(-c3ccccc3)c(-c3nc4ccccc4c(=O)n3-c3ccc(Cl)cc3)s2)cc1` yielded a melting point of 262 to 263 °C. Compound `CC(C)(C)CCN1C(=O)C(NC(=O)Oc2ccccc2)C(=O)N(c2ccccc2F)c2ccccc21` (configuration not stated) has a melting point of 199 to 200 °C. In the case of `OCC1(CN(Cc2ccccc2)Cc2ccccc2)CCN(Cc2ccccc2)C1` (configuration not stated), the melting point is reported as 65 to 67 °C. With `Cc1ccn(-c2ccc(C(=O)N3Cc4cccnc4N(C)c4ccccc43)c(C(F)(F)F)c2)n1` the melting point was 188 to 190 °C. `Cc1nnc(-c2ccnc(Nc3ccccn3)c2)o1` showed a melting point of 196 to 197 °C. With `c1csc(-c2cc(-c3cccs3)ncn2)c1` the melting point was 146 °C. Compound `COC(=O)c1ccc(C(=O)NS(=O)(=O)c2ccc(CCNC(=O)c3cc(Cl)ccc3OC)cc2)cn1` has a melting point of 233 °C. Compound `CC(C)n1nc(-c2c(-c3ccccc3)nn3ccc(OCc4ccccn4)cc23)ccc1=O` has a melting point of 150 to 151 °C. For `O=C(O)c1ccc(C#Cc2ccccc2F)o1`, the melting point was 196 to 198 °C. Compound `COc1cccc(OC)c1C(=O)Nc1ccc(OCCN2CCCC2)cc1` has a melting point of 136 to 140 °C. For `N#Cc1c(N2CCN(C(=O)c3cccs3)CC2)c2cscc2n(-c2cccnc2)c1=O`, the melting point was 282 °C. Work on `COc1cc(OC)nc(Oc2ccccc2C=O)n1` yielded a melting point of 81 °C. `CCCn1c(C)nn(-c2ccc([N+](=O)[O-])cc2)c1=O` gave a melting point of 125 °C. Work on `COc1cc(Nc2nccc(NC3CCN(Cc4ccccc4)CC3)n2)cc(OC)c1OC` yielded a melting point of 136 °C. With `COc1ccc(N2CCN(c3cc4c(cc3-c3ccc(C)cc3)OC(C)(C)C4)CC2)cc1` the melting point was 187 to 190 °C. `COCc1nnc(-c2cccnc2)n1-c1c(C)c(Cl)cc2nc(OC)c(OC)nc12` gave a melting point of 166 to 168 °C. Work on `CCOC(=O)c1ccc2c(c1)CCC(COS(=O)(=O)c1ccc(C)cc1)C2` (configuration not stated) yielded a melting point of 76 to 78 °C. `CCOC(=O)c1cc([N+](=O)[O-])c(N)nc1C(=O)OCC` showed a melting point of 120 to 122 °C. In the case of `CC(C)Oc1ccc(C[C@H](NC(=O)[C@@H]2CCCCN2S(=O)(=O)c2cccc(C(F)(F)F)c2)C(=O)NC2CCOCC2)cc1`, the melting point is reported as 78.6 °C. Work on `CNC=C(C(=O)C=Cc1ccc(Cl)cc1)C(=O)OC` yielded a melting point of 114 to 116 °C. With `Cc1cc(C2(C3CC3)CC(c3ccc(Cl)cc3)=NO2)ccc1NC(=O)c1cccc(I)c1C(=O)NC(C)C` (configuration not stated) the melting point was 178 to 180 °C. Work on `COC(=O)C1=C(C(=O)OC)C2OC1c1cc3c(cc12)OCO3` yielded a melting point of 117 to 119 °C. `CCCc1nnc2c(N(CC)CC)nc3ccccc3n12` gave a melting point of 92 to 94 °C. Compound `COc1cccc(CC(=O)O)c1OCCCc1cn(-c2ccc(C(F)(F)F)cn2)nc1C(C)C` has a melting point of 142 to 143 °C. `CCc1nc2c(N)nc3cc(OCC(=O)c4ccsc4)ccc3c2s1` showed a melting point of 202 to 203 °C. `CC(C)(C)OC(=O)N1CCC=C(Cc2c[nH]c3ccc(F)cc23)C1` gave a melting point of 78 to 80 °C. Work on `Cc1cc(Cc2ccccc2)c(NC(=O)OCc2ccccc2)c(=O)n1CC(=O)O` yielded a melting point of 158 to 160 °C. Work on `COCCOc1ccc(/C=C(\C)C(=O)NS(=O)(=O)C(F)(F)F)c(Oc2ncc(C(F)(F)F)cc2Cl)c1` yielded a melting point of 146 to 147 °C. With `CCOC(=O)C=CN1C(C)(C)CC(=O)CC1(C)C` the melting point was 145 °C. Work on `CC(=NO)c1ccc(OCc2ccccc2)c(CCCc2ccc(C(=O)NCCO)cc2)c1` yielded a melting point of 131 to 132 °C. Compound `COc1cc(C)nc(NC(=O)NS(=O)(=O)c2cccc3c2NC(C)C3)n1` (configuration not stated) has a melting point of 175 to 177 °C. `Cn1c(C(F)(F)F)ccc(-c2c(F)cc(Cl)c3oc(C(Br)Br)cc23)c1=O` gave a melting point of 107 to 109 °C. With `COC1(OCC#Cc2ccc(Cl)nc2)C=CC=NC1` (configuration not stated) the melting point was 100 to 101 °C. For `Cn1nc(-c2cccc(N3Cc4cc(C(C)(C)C)ccc4C3=O)c2CO)cc(Nc2ccncn2)c1=O`, the melting point was 236 to 238 °C. In the case of `COc1ccc2ccc3c(c2c1)CCC(=O)O3`, the melting point is reported as 100 to 101 °C. For `NC(=O)CC[C@H](Nc1ccc(CC(=O)O)cc1)C(=O)O`, the melting point was 198 to 200 °C. `O=C(CC(=O)C(F)(F)F)Nc1cc(-c2ccncc2)n[nH]1` showed a melting point of 364 to 366 °C. Work on `COC(=O)c1cc2cc(OC)ccc2cc1/N=C/N(C)C` yielded a melting point of 160 to 162 °C. Compound `CCOC(=O)COC1CCC2C3CCC4NC(=O)CCC4(C)C3CCC12C` (configuration not stated) has a melting point of 170 to 172 °C. For `CCc1cccc(CC)c1N(CCCC(=O)O)C(=O)CCN(C(C)=O)c1c(C)cccc1C`, the melting point was 110 to 111 °C. In the case of `CCCCCCCCNC(=O)N(C)C[C@H](O)[C@@H](O)[C@H](O)[C@H](O)CO`, the melting point is reported as 111 °C. With `Cn1cc(-c2ccc(Cl)c(C(F)(F)F)c2)c(=O)c(C(F)(F)F)c1` the melting point was 164 to 165 °C. For `CC(=C1SC(=O)NC1=O)c1ccc(OCCOc2c(-c3ccccc3F)n(C)c3ccccc3c2=O)c(Cl)c1`, the melting point was 220 to 222 °C. Work on `COC(=O)c1cccc(OC)c1OS(=O)(=O)NC(=O)Nc1nc(OC)cc(OC)n1` yielded a melting point of 169 to 170 °C. Compound `CC(=O)N1CCC(=C2c3ccc(Cl)cc3CCc3cccnc32)CC1` has a melting point of 155 to 157 °C. For `COC(=O)c1nc(-c2cc(OC)c(Cl)cc2F)cc(NC(C)=O)c1Cl`, the melting point was 180 to 182 °C. For `OCc1nc2cc(Br)cnc2[nH]1`, the melting point was 230 to 233 °C. Compound `COP(=O)(OC)c1ccc(-c2coc3ccc(-c4nnc(C)o4)cc23)cc1` has a melting point of 168 to 169 °C. Compound `CCCCNCc1cn(CCC(=O)NC(C)(C)c2ccc(Cl)cc2)cn1` has a melting point of 115 to 117 °C. Compound `COc1ccc(CN=Nc2c(O)c(O)c(N=NCc3ccc(OC)cc3)c3ccccc23)cc1` has a melting point of 245 to 251 °C. In the case of `O=C(N[C@@H](Cc1ccccc1)C(=O)O)OCC1c2ccccc2Oc2ccccc21`, the melting point is reported as 143 to 145 °C. Work on `Fc1ccc2c(c1)N=C(N1CCNCC1)c1sccc1N2` yielded a melting point of 165 to 167 °C. Work on `CC(C)(CO)C[C@H]1COC(C)(C)N1C(=O)OC(C)(C)C` yielded a melting point of 45 to 46 °C. `CC1(C)CN(c2c(C#N)cnn2-c2ccc(Cl)c(Cl)c2Cl)C1=O` gave a melting point of 147 to 149 °C. In the case of `CCOC(=O)N=C(N)c1ccc(OCc2cccc(COc3ccc(C(C)(C)c4ccccc4)cc3)c2)cc1`, the melting point is reported as 99 °C. For `Cc1cc(CCCCCOc2ccc(C#N)cc2)on1`, the melting point was 57 °C. In the case of `COc1cc(-c2ccccc2C)ccc1C(=O)N1Cc2ccc(C(=O)O)n2Cc2ccccc21`, the melting point is reported as 144 to 146 °C. With `CC1(N2C(=O)c3cccc(NCc4ccco4)c3C2=O)CCC(=O)NC1=O` (configuration not stated) the melting point was 158 to 160 °C. `CC(C)[C@H](CC1C(=O)OC(C)(C)OC1=O)NC(=O)OC(C)(C)C` showed a melting point of 108 to 112 °C. `O=C(O)CCc1cc2ccccc2n1S(=O)(=O)c1ccccc1` showed a melting point of 180 to 185 °C. In the case of `COc1ccc(S(=O)(=O)N(Cc2cccnc2)c2c(C(=O)O)cc(C)cc2-c2cccs2)cc1`, the melting point is reported as 67 °C. Compound `CC(N)(C=CCP(=O)(O)O)C(=O)O` (configuration not stated) has a melting point of 225 to 226 °C. Work on `COc1ccc(CN2CCC(c3cn(CCc4ccsc4)c4cc(F)ccc34)CC2)cc1C(=O)O` yielded a melting point of 228 to 229 °C. Work on `CSc1ccc2c(c1)C(=O)C(C)(C)C(=O)N2` yielded a melting point of 152 °C. `Cn1c(-c2ccccc2)cc(=O)c2cc(C(=O)O)ccc21` gave a melting point of over 30 °C. `CC(CCC1(C(N)=O)c2ccccc2-c2ccccc21)N(C)C` (configuration not stated) showed a melting point of 104 to 106 °C. Compound `COc1ccc(C(=O)c2ccccc2[N+](=O)[O-])cn1` has a melting point of 94 to 95 °C. Work on `Cc1ccc(S(=O)(=O)OCCn2c([N+](=O)[O-])cnc2C=CN(C)C)cc1` yielded a melting point of 116 to 118 °C. `Brc1cnc2c(c1)ncn2-c1cccc(-n2ccnc2)c1` showed a melting point of 236 to 238 °C. In the case of `CN1CCC(C(=O)OC2c3ccccc3C(=O)N2c2ccc3ccc(Cl)nc3n2)CC1` (configuration not stated), the melting point is reported as 136 °C. Compound `O=C(NCCc1cncn1Cc1ccc(Cl)cc1)[C@H]1CN(Cc2ccccc2)CCN1C(=O)NC1CCCCC1` has a melting point of 116 °C. Compound `CCCC1=C(C(=O)OCC)C(c2ccccc2OC2CCCC2)c2c[nH]nc2N1` (configuration not stated) has a melting point of 195 °C. `O=[N+]([O-])C=Cc1cnc2c(OCc3ccccc3)cccn12` showed a melting point of 204 °C. `COc1ccc2[nH]c(-c3ccccc3)cc2c1` gave a melting point of 148 to 149 °C. For `COC(=O)Cc1ccc(CNC(=O)C2Cc3ccccc3N2S(=O)(=O)c2ccc(-c3cccc(C(F)(F)F)c3)cc2)c(Cl)c1` (configuration not stated), the melting point was 124 to 126 °C. Compound `CC(C)(C)SC[C@@H]1NC(=O)[C@@H](CSSC[C@@H]2NC(=O)[C@@H](CSC(C)(C)C)NC2=O)NC1=O` has a melting point of 278 °C. For `CCCC(=O)c1nc(CCC)[nH]c1C#N`, the melting point was 94 to 95 °C.
